Where two headings read alike, the source gives them in different places.
How the values were obtained:
COX-1 = target: T1, COX-1 (Ovis aries, UniProt P05979); assay: Inhibition of cyclooxygenase 1 (spectrophotometric, TMPD); format: biochemical, sheep; details: Tris-HCl pH 8.0, room temperature
T1 construct: purchased Sigma-Aldrich
T1 sequence (P05979 25-600): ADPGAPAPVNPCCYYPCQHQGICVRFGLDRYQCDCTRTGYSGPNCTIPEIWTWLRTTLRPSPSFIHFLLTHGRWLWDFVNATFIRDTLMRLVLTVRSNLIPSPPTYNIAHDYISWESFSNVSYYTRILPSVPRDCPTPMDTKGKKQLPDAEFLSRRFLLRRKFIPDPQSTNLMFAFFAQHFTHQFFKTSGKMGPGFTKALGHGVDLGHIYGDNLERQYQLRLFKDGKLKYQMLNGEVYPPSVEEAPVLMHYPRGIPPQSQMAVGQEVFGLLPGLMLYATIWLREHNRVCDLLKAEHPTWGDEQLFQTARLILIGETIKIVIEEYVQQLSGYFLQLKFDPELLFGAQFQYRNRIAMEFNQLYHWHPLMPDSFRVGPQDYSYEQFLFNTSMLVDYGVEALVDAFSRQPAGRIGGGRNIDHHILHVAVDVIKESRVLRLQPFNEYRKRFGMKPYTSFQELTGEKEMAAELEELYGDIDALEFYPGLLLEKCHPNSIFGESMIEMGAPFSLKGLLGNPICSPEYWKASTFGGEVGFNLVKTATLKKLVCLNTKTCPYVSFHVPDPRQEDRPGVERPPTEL
From the text: The probes 1,6-diphenyl-1,3,5-hexatriene (DPH), 3-[p-(6-phenyl)-1,3,5-hexatrienyl]propionic acid (DPH-PA), Merocyanine 540 (MC540), and N,N,N-trimethyl-4-(6-phenyl-1,3,5-hexatrien-1-yl)phenylammonium p-toluenesulfonate (TMA-DPH) were purchased from Molecular Probes (Eugene, OR, USA). Tris (hydroxymethyl) aminomethane (Tris:HCl) were obtained from “Chempur” (Piekary Śląskie, Poland). Quercetin (Q) was purchased from Sigma-Aldrich. Yellow powder, ^1H-NMR (DMSO-d6) δH: 6.19 (1H, d, J = 2.1 Hz, H-6), 6.41 (1H, d, J = 2.1 Hz, H-8), 6.89 (1H, d, J = 8.5 Hz, H-5′), 7.54 (1H, dd, J = 8.5, 2.2 Hz, H-6′), 7.68 (1H, d, J = 2.2 Hz, H-2′). ^13C-NMR (DMSO-d6) δC: 93.2 (C-8), 98.0 (C-6), 102.9 (C-10), 114.9 (C-2′), 115.4 (C-5′), 119.8 (C-6′), 121.8 (C-1′), 135.6 (C-3), 144.9 (C-3′), 146.6 (C-2), 147.5 (C-4′), 156.0 (C-9), 160.6 (C-5), 163.7 (C-7), 175.7 (C=O).
This experiment, established on the basis of a modified method given in the work by Jang and Pezzuto [68], was conducted by a spectrophotometric measurement of inhibition of the cyclooxygenases’ activity COX-1 and COX-2. […] The concentrations of studied compounds fluctuated in the range 20–100 µM for Q 7-MeGlu and 5–50 µM for Q. Absorbance of the sample was followed for 3 min by measuring it at 1 min intervals, using a spectrophotometer at a wavelength of 611 nm (Cary 100 Bio, Varian) in relation to a reference sample. […]

COX-2 = target: T2, COX-2 (Homo sapiens, UniProt P35354); assay: Inhibition of cyclooxygenase 2 (spectrophotometric, TMPD); format: biochemical
T2 construct: purchased Sigma-Aldrich
T2 sequence (P35354 18-604): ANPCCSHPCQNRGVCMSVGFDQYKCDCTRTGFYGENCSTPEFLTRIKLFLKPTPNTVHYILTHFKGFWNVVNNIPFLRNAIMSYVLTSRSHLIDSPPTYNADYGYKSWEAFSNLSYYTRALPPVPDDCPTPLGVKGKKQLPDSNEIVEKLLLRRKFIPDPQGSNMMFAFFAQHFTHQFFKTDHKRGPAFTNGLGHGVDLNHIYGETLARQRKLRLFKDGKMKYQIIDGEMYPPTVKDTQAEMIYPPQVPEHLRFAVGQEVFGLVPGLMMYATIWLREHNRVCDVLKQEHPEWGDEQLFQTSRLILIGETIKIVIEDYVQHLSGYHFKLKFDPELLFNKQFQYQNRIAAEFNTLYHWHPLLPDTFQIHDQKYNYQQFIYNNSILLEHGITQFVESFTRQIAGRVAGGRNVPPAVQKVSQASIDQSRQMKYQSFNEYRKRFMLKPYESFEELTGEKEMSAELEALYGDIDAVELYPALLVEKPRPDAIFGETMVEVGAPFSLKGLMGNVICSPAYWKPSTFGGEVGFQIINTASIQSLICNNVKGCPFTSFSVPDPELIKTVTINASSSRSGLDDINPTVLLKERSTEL
From the text: The probes 1,6-diphenyl-1,3,5-hexatriene (DPH), 3-[p-(6-phenyl)-1,3,5-hexatrienyl]propionic acid (DPH-PA), Merocyanine 540 (MC540), and N,N,N-trimethyl-4-(6-phenyl-1,3,5-hexatrien-1-yl)phenylammonium p-toluenesulfonate (TMA-DPH) were purchased from Molecular Probes (Eugene, OR, USA). Tris (hydroxymethyl) aminomethane (Tris:HCl) were obtained from “Chempur” (Piekary Śląskie, Poland). Quercetin (Q) was purchased from Sigma-Aldrich.
This experiment, established on the basis of a modified method given in the work by Jang and Pezzuto [68], was conducted by a spectrophotometric measurement of inhibition of the cyclooxygenases’ activity COX-1 and COX-2. […] To initiate the reaction, arachidonic acid was added at a concentration of 35 mM. The final volume of the sample was 1 mL. […] The measurements were carried out at room temperature. The control sample contained the right amount of solvent (methanol) instead of the studied compounds. […] The experiment was performed in five replicates (n = 5).

IC50 (COX-2; Tris-HCl pH 8.0, room temperature, read-out: IC50 COX-2) | Structure (SMILES) | IC50 (COX-1) | IC50 (COX-2)
49.2 ± 5.55 µM | CO[C@H]1[C@H](O)[C@@H](O)[C@H](Oc2cc(O)c3c(=O)c(O)c(-c4ccc(O)c(O)c4)oc3c2)O[C@@H]1CO [Q 7-MeGlu, quercetin 7-O-β-D-(4″-O-methyl)glucopyranoside] | 45.1 ± 2.51 µM | 
 | O=c1c(O)c(-c2ccc(O)c(O)c2)oc2cc(O)cc(O)c12 [Quercetin, 3,3′,4′,5,7-pentahydroxyflavone] | 15.7 ± 1.73 µM | 17 ± 2.43 µM

Reference: paper PMC6151435, “Bioactivity In Vitro of Quercetin Glycoside Obtained in Beauveria bassiana Culture and Its Interaction with Liposome Membranes” (Molecules : A Journal of Synthetic Chemistry and Natural …, 2017)
